# What was measured:
# asthma [1] = details: inhaled; cited from earlier work
# asthma [2] = details: single administration of metered-dose aerosol; cited from earlier work
# [3] = Glycopyrrolate therapy, summary of findings of the studies; format: in vivo
# Description: Further, it is apparent that different dosages of the drug, without side-effects, are essentially equivalent in effect. […] This makes the medicament particularly suitable for the treatment of bronchospasm, or as a rescue medication.
smiles,measurement,setting,value
C[N+]1(C)CCC(OC(=O)C(O)(c2ccccc2)C2CCCC2)C1 (centres unmarked) [glycopyrrolate],Duration of effective treatment,asthma [1],up to 12 hours
same,"Duration of effective treatment, maximal",asthma [1],up to 8 hours
same,Period of bronchodilation,asthma [2],12 h
same,Onset of bronchodilation,[3]; in vivo,high and immediate
same,Tachycardia,[3]; problems associated with anti-muscarinics,apparently absent

# From patent publication US20080020048A1, “Treatment of Respiratory Disease” (priority 2004, published 2008)
